Laboratory results as given in ChEMBL document CHEMBL2434959, “Identification and characterization of novel indole based small molecules as anticancer agents through SIRT1 inhibition” (Eur J Med Chem, 2013).
Activity calls are given as the source filed them. The calls are words filed in the database; no cut-off is given here.

Assays:
[1] = Lipophilicity, log P of the compound; type: physicochemical; conditions: octanol/water
Rattus norvegicus [2] = assay: Inhibition of testosterone propionate-induced prostate hyperplasia in Wistar rat assessed as retention of normal cell morphology at 5 mg/kg, ip co-administered with testosterone propionate for 14 days by hematoxylin/eosin staining method; type: functional, organism-based; parameters: dose 5 mg/kg
Rattus norvegicus [3] = assay: Inhibition of testosterone propionate-induced prostate hyperplasia in Wistar rat assessed as reduction in histoarchitecture disruption at 5 mg/kg, ip co-administered with testosterone propionate for 14 days by hematoxylin/eosin staining method; type: functional, organism-based; parameters: dose 5 mg/kg; conditions: Prostate gland
Rattus norvegicus [4] = assay: Inhibition of testosterone propionate-induced prostate hyperplasia in Wistar rat assessed as prostate weight at 5 mg/kg, ip co-administered with testosterone propionate for 14 days (reference value: 0.838 +/- 0.0293 g); type: functional, Prostate gland; conditions: route intraperitoneal
Rattus norvegicus [5] = assay: Inhibition of testosterone propionate-induced prostate hyperplasia in Wistar rat assessed as seminal vesicle weight at 5 mg/kg, ip co-administered with testosterone propionate for 14 days (reference value: 1.6071 +/- 0.0821 g); type: functional, Prostate gland; conditions: route intraperitoneal
Rattus norvegicus [6] = assay: Inhibition of testosterone propionate-induced prostate hyperplasia in Wistar rat assessed as ratio of prostate weight to body weight at 5 mg/kg, ip co-administered with testosterone propionate for 14 days (reference value: 3.1634 +/- 0.1264 no unit); type: functional, Prostate gland; conditions: route intraperitoneal
K562 = assay: Growth inhibition of human K562 cells at 10 uM after 24 hrs by MTT assay; type: functional; conditions: K562, 24 h, read-out: GI
MDA-MB-231 = assay: Growth inhibition of human MDA-MB-231 cells at 10 uM after 24 hrs by MTT assay; type: functional; conditions: MDA-MB-231, 24 h, read-out: GI
Rattus norvegicus [7] = assay: Inhibition of testosterone propionate-induced prostate hyperplasia in Wistar rat assessed as reduction in histoarchitecture disruption at 10 mg/kg, ip co-administered with testosterone propionate for 14 days by hematoxylin/eosin staining method; type: functional, organism-based; parameters: dose 10 mg/kg; conditions: Prostate gland
[8] = molecular target: T1, NAD-dependent protein deacetylase sirtuin-1 (Homo sapiens) (UniProt Q96EB6); assay: Inhibition of recombinant human SIRT1 using AMC-Arg-His-Lys-Lys(Ac) as substrate at 40 uM after 45 mins by fluorimetric assay
T1 sequence (whole entry): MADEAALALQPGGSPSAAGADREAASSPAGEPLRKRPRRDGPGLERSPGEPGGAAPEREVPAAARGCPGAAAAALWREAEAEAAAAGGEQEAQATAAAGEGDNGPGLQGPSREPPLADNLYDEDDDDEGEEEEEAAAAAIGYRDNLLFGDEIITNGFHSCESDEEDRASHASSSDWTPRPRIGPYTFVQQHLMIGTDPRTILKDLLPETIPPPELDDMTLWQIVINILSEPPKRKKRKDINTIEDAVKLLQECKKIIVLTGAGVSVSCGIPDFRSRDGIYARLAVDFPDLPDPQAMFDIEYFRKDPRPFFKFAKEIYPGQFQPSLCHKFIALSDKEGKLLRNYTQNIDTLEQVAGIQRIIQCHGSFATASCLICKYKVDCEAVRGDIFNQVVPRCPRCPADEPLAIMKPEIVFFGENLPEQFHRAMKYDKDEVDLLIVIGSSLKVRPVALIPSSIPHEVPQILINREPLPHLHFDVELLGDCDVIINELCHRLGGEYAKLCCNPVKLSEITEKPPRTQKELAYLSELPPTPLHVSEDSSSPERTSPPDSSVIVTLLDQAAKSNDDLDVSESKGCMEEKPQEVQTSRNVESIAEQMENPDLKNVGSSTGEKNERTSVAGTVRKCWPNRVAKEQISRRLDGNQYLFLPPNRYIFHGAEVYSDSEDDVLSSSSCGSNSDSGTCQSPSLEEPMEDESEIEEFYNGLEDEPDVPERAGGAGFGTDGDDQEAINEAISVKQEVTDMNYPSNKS

Rattus norvegicus [9] = assay: Inhibition of testosterone propionate-induced prostate hyperplasia in Wistar rat assessed as retention of normal cell morphology at 10 mg/kg, ip co-administered with testosterone propionate for 14 days by hematoxylin/eosin staining method; type: functional, organism-based; parameters: dose 10 mg/kg
LNCaP = assay: Growth inhibition of human LNCAP cells at 10 uM after 24 hrs by MTT assay; type: functional; conditions: read-out: GI
Rattus norvegicus [10] = assay: Inhibition of testosterone propionate-induced prostate hyperplasia in Wistar rat assessed as prostate weight at 10 mg/kg, ip co-administered with testosterone propionate for 14 days (reference value: 0.838 +/- 0.0293 g); type: functional, Prostate gland; conditions: route intraperitoneal
Rattus norvegicus [11] = assay: Inhibition of testosterone propionate-induced prostate hyperplasia in Wistar rat assessed as seminal vesicle weight at 10 mg/kg, ip co-administered with testosterone propionate for 14 days (reference value: 1.6071 +/- 0.0821 g); type: functional, Prostate gland; conditions: route intraperitoneal
Rattus norvegicus [12] = assay: Inhibition of testosterone propionate-induced prostate hyperplasia in Wistar rat at 10 mg/kg, ip co-administered with testosterone propionate for 14 days; type: functional; conditions: Prostate gland, 336 h, route intraperitoneal
Rattus norvegicus [13] = assay: Inhibition of testosterone propionate-induced prostate hyperplasia in Wistar rat assessed as reduction in SIRT1 mRNA level in prostate tissue at 10 mg/kg, ip co-administered with testosterone propionate for 14 days by RT-PCR analysis; type: functional, organism-based; parameters: dose 10 mg/kg; conditions: Prostate gland
Rattus norvegicus [14] = assay: Inhibition of testosterone propionate-induced prostate hyperplasia in Wistar rat assessed as ratio of prostate weight to body weight at 10 mg/kg, ip co-administered with testosterone propionate for 14 days (reference value: 3.1634 +/- 0.1264 no unit); type: functional, Prostate gland; conditions: route intraperitoneal

Row | SMILES | logP [1] | inhibition of growth at 10 µM (MDA-MB-231) | further results
1 | CC1CN(Cc2c(-c3nnc(SC(C)C)n3-c3ccccc3)n(C)c3ccccc23)CC(C)O1 (stereo not given) | 5.13 |  | 
2 | CC(C)(C)NC(=O)[C@H]1CC[C@H]2[C@@H]3CC[C@H]4NC(=O)C=C[C@]4(C)[C@H]3CC[C@]12C [FINASTERIDE] |  |  | inhibition (Rattus norvegicus [2]): Active; inhibition (Rattus norvegicus [3]): Active; Activity (Rattus norvegicus [4]): 0.556 g; Activity (Rattus norvegicus [5]): 0.9051 g; Ratio (Rattus norvegicus [6]): 0.002471
3 | CC(C)Sc1nnc(-c2c(CNCC3CC3)c3ccccc3n2C)n1-c1ccccc1 | 5.24 |  | inhibition of growth at 10 µM (K562): > 50%
4 | CC(C)Sc1nnc(-c2c(CNC3CC3)c3cc(F)ccc3n2C)n1-c1ccccc1 | 4.97 | > 50% | inhibition of growth at 10 µM (K562): > 50%
5 | COc1ccc(CNCc2c(-c3nnc(SC(C)C)n3-c3ccccc3)n(C)c3ccccc23)cc1 | 6.27 | > 50% | 
6 | COc1cc(NCc2c(-c3nnc(SC(C)C)n3-c3ccccc3)n(C)c3ccc(F)cc23)cc(OC)c1OC | 5.96 |  | inhibition of growth at 10 µM (K562): > 50%
7 | CC(C)Sc1nnc(-c2c(CN3CCOCC3)c3ccccc3n2C)n1-c1ccccc1 | 4.5 |  | 
8 | COCCNCc1c(-c2nnc(SC(C)C)n2-c2ccccc2)n(C)c2ccccc12 | 4.36 |  | 
9 | CC(C)Sc1nnc(-c2c(CNC3CC3)c3ccccc3n2C)n1-c1ccccc1 | 4.81 |  | 
10 | COc1ccc(CNCc2c(-c3nnc(SC(C)C)n3-c3ccccc3)n(C)c3ccc(F)cc23)cc1 | 6.42 | > 50% | inhibition (Rattus norvegicus [7]): Active; inhibition [8]: 70%; inhibition (Rattus norvegicus [9]): Active; inhibition of growth at 10 µM (LNCaP): > 50%; Activity (Rattus norvegicus [10]): 0.537 g; Activity (Rattus norvegicus [11]): 0.619 g; inhibition in vivo at 10 mg/kg (Rattus norvegicus [12]): 70.5%; inhibition (Rattus norvegicus [13]): Active; Ratio (Rattus norvegicus [14]): 0.002298
11 | COc1cc(NCc2c(-c3nnc(SC(C)C)n3-c3ccccc3)n(C)c3ccccc23)cc(OC)c1OC | 5.8 |  | 
12 | CC1CCCN(Cc2c(-c3nnc(SC(C)C)n3-c3ccccc3)n(C)c3ccc(F)cc23)C1 (stereo not given) | 6.18 | > 50% | 
13 | CC(C)Sc1nnc(-c2c(CNc3cnccn3)c3ccccc3n2C)n1-c1ccccc1 | 4.22 |  | 
14 | CC1CCN(Cc2c(-c3nnc(SC(C)C)n3-c3ccccc3)n(C)c3ccc(F)cc23)CC1 | 6.12 | > 50% | inhibition of growth at 10 µM (LNCaP): > 50%
15 | CC(C)Sc1nnc(-c2c(CN3CCC(N4CCCC4)CC3)c3ccccc3n2C)n1-c1ccccc1 | 5.16 |  | 
16 | CC1CCN(Cc2c(-c3nnc(SC(C)C)n3-c3ccccc3)n(C)c3ccccc23)CC1 | 5.96 |  | inhibition of growth at 10 µM (K562): 88%
17 | COc1cccc(CNCc2c(-c3nnc(SC(C)C)n3-c3ccccc3)n(C)c3ccccc23)c1 | 6.27 | > 50% | 
18 | COc1cccc(CNCc2c(-c3nnc(SC(C)C)n3-c3ccccc3)n(C)c3ccc(F)cc23)c1 | 6.42 | > 50% | 
19 | CC(C)Sc1nnc(-c2c(CNc3nc4ccccc4[nH]3)c3ccccc3n2C)n1-c1ccccc1 | 5.94 |  | 
20 | CC(C)Sc1nnc(-c2c(CN3CCCCC3C)c3ccccc3n2C)n1-c1ccccc1 (stereo not given) | 5.95 |  | 
21 | CC1CCCN(Cc2c(-c3nnc(SC(C)C)n3-c3ccccc3)n(C)c3ccccc23)C1 (stereo not given) | 6.03 | > 50% | 

More lines, main results first:

Row | logP [1] | SMILES | inhibition of growth at 10 µM (MDA-MB-231) | further results
22 | 4.65 | CC(C)Sc1nnc(-c2c(CN3CCOCC3)c3cc(F)ccc3n2C)n1-c1ccccc1 |  | inhibition of growth at 10 µM (K562): 88%
23 | 4.52 | COCCNCc1c(-c2nnc(SC(C)C)n2-c2ccccc2)n(C)c2ccc(F)cc12 |  | inhibition of growth at 10 µM (LNCaP): > 50%
24 | 4.83 | CC(C)Sc1nnc(-c2c(CNCCN3CCCC3)c3ccccc3n2C)n1-c1ccccc1 |  | 
25 | 4.22 | CC(C)Sc1nnc(-c2c(CNCCCN3CCOCC3)c3ccccc3n2C)n1-c1ccccc1 |  | 
26 | 4.12 | CC(C)Sc1nnc(-c2c(CNCCN3CCOCC3)c3ccccc3n2C)n1-c1ccccc1 |  | 
27 | 4.99 | CC(C)Sc1nnc(-c2c(CNCCN3CCCC3)c3cc(F)ccc3n2C)n1-c1ccccc1 |  | 
28 | 4.38 | CC(C)Sc1nnc(-c2c(CNCCCN3CCOCC3)c3cc(F)ccc3n2C)n1-c1ccccc1 |  | 
29 | 4.28 | CC(C)Sc1nnc(-c2c(CNCCN3CCOCC3)c3cc(F)ccc3n2C)n1-c1ccccc1 |  | 
30 | 5.4 | CC(C)Sc1nnc(-c2c(CNCC3CC3)c3cc(F)ccc3n2C)n1-c1ccccc1 | > 50% | inhibition of growth at 10 µM (K562): > 50%
